Experimental data reported in patent publication US10710978B2, “STK4 inhibitors for treatment of hematologic malignancies” (Dana-Farber Cancer Institute, Inc., priority 2015, dated 2020).
Read-outs that look alike come from different tables or passages of the source.

Assays:
Assay in all cases: KiNativ assay
Format in all cases: binding
MARK2, MARK3 = details: H929 live cell
Method: (§1) Biochemical IC50s of the compounds of the present disclosure against various kinases were measured in a KiNativ assay. Compounds were screened in duplicate at 10 μM in H929 live cell. IC50 was measured via Mass spectroscopy (MS).

PRPK = PRPK (Homo sapiens (Human), UniProt Q96S44); details: H929 live cell
PRPK, sequence (Q96S44 whole entry): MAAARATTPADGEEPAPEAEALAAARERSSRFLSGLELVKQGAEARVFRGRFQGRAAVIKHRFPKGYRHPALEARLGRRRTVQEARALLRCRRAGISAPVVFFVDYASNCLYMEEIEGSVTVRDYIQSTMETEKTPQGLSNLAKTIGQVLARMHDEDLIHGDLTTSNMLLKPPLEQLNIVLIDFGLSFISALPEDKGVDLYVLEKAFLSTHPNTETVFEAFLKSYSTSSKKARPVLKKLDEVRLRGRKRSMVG
Method: as §1

MAP3K4 = MAP3K4 (Homo sapiens (Human), UniProt Q9Y6R4); details: H929 live cell
Method: as §1

AMPKa1, AMPKa2 = details: H929 live cell
Method: as §1

CDK11, CDK8 = details: H929 live cell
Method: as §1

CHK1 = CHK1 (Homo sapiens (Human), UniProt O14757); details: H929 live cell
Method: as §1

PIP4K2C = PIP4K2C (Homo sapiens (Human), UniProt Q8TBX8); details: H929 live cell
Method: as §1

p70S6Kb = p70S6Kb (Homo sapiens (Human), UniProt Q9UBS0); details: H929 live cell
p70S6Kb, sequence (Q9UBS0 whole entry): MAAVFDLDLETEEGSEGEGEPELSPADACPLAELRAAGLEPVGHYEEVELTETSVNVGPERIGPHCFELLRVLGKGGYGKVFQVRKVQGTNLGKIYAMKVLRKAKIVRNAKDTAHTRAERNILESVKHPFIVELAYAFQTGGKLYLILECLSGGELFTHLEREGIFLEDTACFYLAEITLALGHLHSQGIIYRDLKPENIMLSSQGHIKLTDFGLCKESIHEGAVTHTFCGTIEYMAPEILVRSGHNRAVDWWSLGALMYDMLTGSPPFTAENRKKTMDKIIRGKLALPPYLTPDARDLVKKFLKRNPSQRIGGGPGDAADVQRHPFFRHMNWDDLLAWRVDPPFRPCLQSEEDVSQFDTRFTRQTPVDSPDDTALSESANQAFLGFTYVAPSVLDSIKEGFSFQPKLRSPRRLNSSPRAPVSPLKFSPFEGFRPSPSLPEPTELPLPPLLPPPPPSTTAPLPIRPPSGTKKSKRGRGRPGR
Method: as §1

PAN3 = PAN3 (Homo sapiens (Human), UniProt Q58A45); details: H929 live cell
Method: as §1

BARK1 = BARK1 (Homo sapiens (Human), UniProt P25098); details: H929 live cell
BARK1, sequence (P25098 whole entry): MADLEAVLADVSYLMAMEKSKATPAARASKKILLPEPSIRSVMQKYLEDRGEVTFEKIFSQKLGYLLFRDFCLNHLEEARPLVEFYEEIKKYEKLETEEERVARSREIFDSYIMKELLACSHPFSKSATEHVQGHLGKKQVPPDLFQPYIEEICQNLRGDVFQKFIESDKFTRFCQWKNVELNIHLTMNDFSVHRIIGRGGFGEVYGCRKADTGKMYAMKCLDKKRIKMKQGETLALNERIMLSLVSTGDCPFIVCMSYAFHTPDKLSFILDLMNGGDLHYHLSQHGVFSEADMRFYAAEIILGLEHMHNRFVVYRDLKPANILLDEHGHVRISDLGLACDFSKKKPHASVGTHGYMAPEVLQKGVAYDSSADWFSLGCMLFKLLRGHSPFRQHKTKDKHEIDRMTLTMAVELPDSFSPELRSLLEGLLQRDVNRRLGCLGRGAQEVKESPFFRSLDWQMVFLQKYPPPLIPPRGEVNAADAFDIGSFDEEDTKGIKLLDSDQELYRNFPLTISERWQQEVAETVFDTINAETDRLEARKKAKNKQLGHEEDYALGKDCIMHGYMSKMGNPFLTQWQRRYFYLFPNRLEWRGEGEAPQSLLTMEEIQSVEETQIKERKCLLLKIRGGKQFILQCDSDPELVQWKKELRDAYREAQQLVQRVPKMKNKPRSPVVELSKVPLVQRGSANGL
Method: as §1

OSR1 = OSR1 (Homo sapiens (Human), UniProt O95747); details: H929 live cell
Method: as §1

ATR = ATR (Homo sapiens (Human), UniProt Q13535); details: H929 live cell
Method: as §1

NEK9 = NEK9 (Homo sapiens (Human), UniProt Q8TD19); details: H929 live cell
Method: as §1

MAP2K1, MAP2K2 = details: 10 μM, H929 live cell; range class
Method: as §1

MSK1 domain1 = MSK1 domain1 (Homo sapiens (Human), UniProt O75582); details: H929 live cell
MSK1 domain1, sequence (O75582 whole entry, the tested form may be a part): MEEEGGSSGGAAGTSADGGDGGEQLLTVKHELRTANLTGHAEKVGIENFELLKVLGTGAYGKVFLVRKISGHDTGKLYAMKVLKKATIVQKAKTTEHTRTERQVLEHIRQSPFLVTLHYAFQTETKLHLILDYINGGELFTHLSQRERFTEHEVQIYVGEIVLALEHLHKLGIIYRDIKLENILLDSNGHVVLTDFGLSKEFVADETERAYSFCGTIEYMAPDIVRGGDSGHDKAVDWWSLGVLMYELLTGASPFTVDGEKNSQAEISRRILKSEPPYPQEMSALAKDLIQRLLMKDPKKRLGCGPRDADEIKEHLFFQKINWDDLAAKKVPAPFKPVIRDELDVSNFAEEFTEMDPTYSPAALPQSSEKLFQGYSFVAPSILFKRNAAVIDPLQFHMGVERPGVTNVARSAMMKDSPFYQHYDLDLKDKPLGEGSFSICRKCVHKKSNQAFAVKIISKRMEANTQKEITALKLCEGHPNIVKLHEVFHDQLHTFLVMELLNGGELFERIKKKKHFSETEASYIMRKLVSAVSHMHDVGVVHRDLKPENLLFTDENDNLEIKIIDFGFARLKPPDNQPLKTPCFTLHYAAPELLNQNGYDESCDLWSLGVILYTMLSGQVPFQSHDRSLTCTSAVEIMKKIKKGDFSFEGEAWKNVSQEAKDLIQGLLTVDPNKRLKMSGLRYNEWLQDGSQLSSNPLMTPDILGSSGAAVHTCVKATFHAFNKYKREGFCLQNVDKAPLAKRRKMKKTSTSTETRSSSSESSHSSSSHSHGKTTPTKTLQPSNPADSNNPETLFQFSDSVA
Method: as §1

LATS1 = LATS1 (Homo sapiens (Human), UniProt O95835); details: H929 live cell
Method: as §1

STLK6 = STLK6 (Homo sapiens (Human), UniProt Q9C0K7); details: H929 live cell
Method: as §1

NEK7 = NEK7 (Homo sapiens (Human), UniProt Q8TDX7); details: H929 live cell
Method: as §1

TBK1 = TBK1 (Homo sapiens (Human), UniProt Q9UHD2); details: H929 live cell
Method: as §1

LOK = LOK (Homo sapiens (Human), UniProt O94804); details: H929 live cell
LOK, sequence (O94804 whole entry): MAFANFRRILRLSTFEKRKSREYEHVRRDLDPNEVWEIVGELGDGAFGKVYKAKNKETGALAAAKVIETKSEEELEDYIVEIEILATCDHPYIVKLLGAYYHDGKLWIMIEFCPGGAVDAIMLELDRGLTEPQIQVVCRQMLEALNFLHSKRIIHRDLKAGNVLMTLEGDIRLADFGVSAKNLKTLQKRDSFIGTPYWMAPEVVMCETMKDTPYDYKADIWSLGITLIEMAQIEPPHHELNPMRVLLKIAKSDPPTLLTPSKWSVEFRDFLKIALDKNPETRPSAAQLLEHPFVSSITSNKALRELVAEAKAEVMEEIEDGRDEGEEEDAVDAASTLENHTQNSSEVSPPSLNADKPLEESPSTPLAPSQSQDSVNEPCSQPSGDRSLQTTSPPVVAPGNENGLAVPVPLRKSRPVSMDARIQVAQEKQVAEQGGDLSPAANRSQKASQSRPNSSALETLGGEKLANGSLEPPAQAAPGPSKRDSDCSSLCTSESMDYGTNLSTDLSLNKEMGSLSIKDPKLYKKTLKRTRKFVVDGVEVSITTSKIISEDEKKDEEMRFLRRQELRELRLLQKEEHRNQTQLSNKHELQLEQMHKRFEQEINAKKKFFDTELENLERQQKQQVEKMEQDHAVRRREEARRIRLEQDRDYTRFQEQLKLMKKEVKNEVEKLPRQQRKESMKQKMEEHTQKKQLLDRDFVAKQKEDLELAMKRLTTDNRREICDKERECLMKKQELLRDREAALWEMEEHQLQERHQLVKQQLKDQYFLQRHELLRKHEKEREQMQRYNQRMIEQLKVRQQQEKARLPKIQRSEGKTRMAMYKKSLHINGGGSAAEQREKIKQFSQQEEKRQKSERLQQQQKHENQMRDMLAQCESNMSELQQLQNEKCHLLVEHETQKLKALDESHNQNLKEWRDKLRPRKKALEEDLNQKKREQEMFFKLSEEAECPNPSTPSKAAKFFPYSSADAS
Method: as §1

AurB = AurB (Homo sapiens (Human), UniProt Q96GD4); details: H929 live cell
Method: as §1

NuaK2 = NuaK2 (Homo sapiens (Human), UniProt Q9H093); details: H929 live cell
Method: as §1

MAP2K4 = MAP2K4 (Homo sapiens (Human), UniProt P45985); details: H929 live cell
Method: as §1

PITSLRE = details: H929 live cell
Method: as §1

AurA = AurA (Homo sapiens (Human), UniProt O14965); details: H929 live cell
AurA, sequence (O14965 whole entry): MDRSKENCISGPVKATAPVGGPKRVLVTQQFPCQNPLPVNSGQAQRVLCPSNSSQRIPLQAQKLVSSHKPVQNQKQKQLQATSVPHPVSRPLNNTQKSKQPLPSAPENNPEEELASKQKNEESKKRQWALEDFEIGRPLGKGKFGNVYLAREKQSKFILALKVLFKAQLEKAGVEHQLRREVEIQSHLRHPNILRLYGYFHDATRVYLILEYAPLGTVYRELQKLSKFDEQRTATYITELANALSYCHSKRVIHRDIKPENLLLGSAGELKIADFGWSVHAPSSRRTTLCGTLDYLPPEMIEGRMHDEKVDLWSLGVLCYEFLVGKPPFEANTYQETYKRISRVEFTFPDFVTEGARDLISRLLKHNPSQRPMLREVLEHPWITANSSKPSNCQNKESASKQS
Method: as §1

LYN = LYN (Homo sapiens (Human), UniProt P07948); details: H929 live cell
Method: as §1

PLK1 = PLK1 (Homo sapiens (Human), UniProt P53350); details: H929 live cell
Method: as §1

NDR2 = NDR2 (Homo sapiens (Human), UniProt Q9Y2H1); details: H929 live cell
Method: as §1

FER = FER (Homo sapiens (Human), UniProt P16591); details: H929 live cell
FER, sequence (P16591 whole entry): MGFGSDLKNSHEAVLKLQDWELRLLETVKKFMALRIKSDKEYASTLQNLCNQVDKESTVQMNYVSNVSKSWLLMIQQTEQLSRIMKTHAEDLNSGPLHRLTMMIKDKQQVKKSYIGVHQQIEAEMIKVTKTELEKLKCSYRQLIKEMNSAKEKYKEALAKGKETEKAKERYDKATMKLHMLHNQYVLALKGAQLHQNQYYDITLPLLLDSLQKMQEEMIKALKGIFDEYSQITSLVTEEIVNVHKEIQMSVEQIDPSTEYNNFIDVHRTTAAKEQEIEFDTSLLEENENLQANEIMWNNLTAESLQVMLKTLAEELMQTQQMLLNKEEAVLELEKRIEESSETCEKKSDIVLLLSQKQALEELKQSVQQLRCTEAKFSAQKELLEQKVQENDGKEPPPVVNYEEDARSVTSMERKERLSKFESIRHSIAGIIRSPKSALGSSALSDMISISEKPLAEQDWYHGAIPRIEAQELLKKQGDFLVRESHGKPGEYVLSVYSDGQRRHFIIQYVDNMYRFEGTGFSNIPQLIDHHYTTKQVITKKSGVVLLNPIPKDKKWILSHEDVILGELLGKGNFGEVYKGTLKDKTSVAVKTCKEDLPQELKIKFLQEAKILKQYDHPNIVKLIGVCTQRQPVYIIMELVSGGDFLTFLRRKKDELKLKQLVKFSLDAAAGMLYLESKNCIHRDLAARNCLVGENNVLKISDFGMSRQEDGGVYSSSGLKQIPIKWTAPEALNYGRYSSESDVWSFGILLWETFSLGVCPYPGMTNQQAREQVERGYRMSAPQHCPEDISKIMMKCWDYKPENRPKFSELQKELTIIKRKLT
Method: as §1

CSK = CSK (Homo sapiens (Human), UniProt P41240); details: H929 live cell
CSK, sequence (P41240 whole entry): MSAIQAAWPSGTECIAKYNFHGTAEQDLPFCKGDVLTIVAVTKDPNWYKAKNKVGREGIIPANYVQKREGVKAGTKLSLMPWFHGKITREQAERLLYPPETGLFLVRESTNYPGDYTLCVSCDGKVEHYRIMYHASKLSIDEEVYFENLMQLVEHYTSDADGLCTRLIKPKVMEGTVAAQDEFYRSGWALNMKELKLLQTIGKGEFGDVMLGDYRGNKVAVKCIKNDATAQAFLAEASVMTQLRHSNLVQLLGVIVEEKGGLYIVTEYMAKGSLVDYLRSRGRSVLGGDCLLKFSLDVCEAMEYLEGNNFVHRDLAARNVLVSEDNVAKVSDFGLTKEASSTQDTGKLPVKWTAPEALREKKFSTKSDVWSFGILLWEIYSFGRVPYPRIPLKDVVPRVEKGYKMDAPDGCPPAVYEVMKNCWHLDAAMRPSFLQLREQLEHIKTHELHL
Method: as §1

PIK3CB = PIK3CB (Homo sapiens (Human), UniProt P42338); details: H929 live cell
Method: as §1

ZAK = ZAK (Homo sapiens (Human), UniProt Q9NYL2); details: H929 live cell
Method: as §1

GCK = GCK (Homo sapiens (Human), UniProt Q12851); details: H929 live cell
Method: as §1

MAP3K1 = MAP3K1 (Homo sapiens (Human), UniProt Q13233); details: H929 live cell
Method: as §1

[1] = range class, read-out: % inhibition

Nc1ncc(-c2ccc(NS(=O)(=O)C3CC3)cc2OC2CCCCC2)cc1-c1ccc2c(c1)CCNC2=O [Compound I-65, N-(4-(6-amino-5-(1-oxo-1,2,3,4-tetrahydroisoquinolin-6-yl)pyridin-3-yl)-3-(cyclohexyloxy)phenyl) cyclopropanesulfonamide]
% inhibition (MARK2, MARK3; 10 μM, range class): 0.0%
inhibition (10 μM) (MARK2, MARK3): −17.2%
inhibition at 10 µM (PRPK; [1]): 0%
inhibition at 10 µM (PRPK; read-out: inhibition (10 μM)): -55.9%
inhibition at 10 µM (MAP3K4; [1]): 0%
inhibition at 10 µM (MAP3K4; read-out: inhibition (10 μM)): 10.3%
% inhibition (AMPKa1, AMPKa2; 10 μM, range class): 35-40%
inhibition (10 μM) (AMPKa1, AMPKa2): 39.0%
% inhibition (CDK11, CDK8; 10 μM, range class): 0.0%
inhibition (10 μM) (CDK11, CDK8): 31.3%
inhibition at 10 µM (CHK1; [1]): 0%
inhibition at 10 µM (CHK1; read-out: inhibition (10 μM)): -16%
inhibition at 10 µM (PIP4K2C; [1]): > 90%
inhibition at 10 µM (PIP4K2C; read-out: inhibition (10 μM)): 90.2%
inhibition at 10 µM (p70S6Kb; [1]): 0%
inhibition at 10 µM (p70S6Kb; read-out: inhibition (10 μM)): 32%
inhibition at 10 µM (PAN3; [1]): 0%
inhibition at 10 µM (PAN3; read-out: inhibition (10 μM)): 5.8%
inhibition at 10 µM (BARK1; [1]): 0%
inhibition at 10 µM (BARK1; read-out: inhibition (10 μM)): 3.9%
inhibition at 10 µM (OSR1; [1]): 0%
inhibition at 10 µM (OSR1; read-out: inhibition (10 μM)): 26.8%
inhibition at 10 µM (ATR; [1]): 0%
inhibition at 10 µM (ATR; read-out: inhibition (10 μM)): 28.1%
inhibition at 10 µM (NEK9; [1]): 0%
inhibition at 10 µM (NEK9; read-out: inhibition (10 μM)): -27.8%
% inhibition (MAP2K1, MAP2K2): 0.0%
inhibition at 10 µM (MSK1 domain1; [1]): 0%
inhibition at 10 µM (MSK1 domain1; read-out: inhibition (10 μM)): -52.5%
inhibition at 10 µM (LATS1; [1]): 0%
inhibition at 10 µM (LATS1; read-out: inhibition (10 μM)): 33.8%
inhibition at 10 µM (STLK6; [1]): 0%
inhibition at 10 µM (STLK6; read-out: inhibition (10 μM)): -15.9%
inhibition at 10 µM (NEK7; [1]): 0%
inhibition at 10 µM (NEK7; read-out: inhibition (10 μM)): -80%
inhibition at 10 µM (TBK1; [1]): 50 to 75%
inhibition at 10 µM (TBK1; read-out: inhibition (10 μM)): 74.6%
inhibition at 10 µM (LOK; [1]): > 90%
inhibition at 10 µM (LOK; read-out: inhibition (10 μM)): 98.7%
inhibition at 10 µM (AurB; [1]): 0%
inhibition at 10 µM (AurB; read-out: inhibition (10 μM)): 21%
inhibition at 10 µM (NuaK2; [1]): 35 to 40%
inhibition at 10 µM (NuaK2; read-out: inhibition (10 μM)): 48.7%
inhibition at 10 µM (MAP2K4; [1]): 0%
inhibition at 10 µM (MAP2K4; read-out: inhibition (10 μM)): -15.3%
% inhibition (PITSLRE; 10 μM, range class): 0.0%
inhibition (10 μM) (PITSLRE): −17.5%
inhibition (10 μM) (AurA): 40.2%
inhibition at 10 µM (AurA; [1]): 35 to 40%
inhibition at 10 µM (AurA; read-out: inhibition (10 μM)): 45.4%
inhibition at 10 µM (LYN; [1]): 0%
inhibition at 10 µM (LYN; read-out: inhibition (10 μM)): -1.3%
inhibition at 10 µM (PLK1; [1]): 0%
inhibition at 10 µM (PLK1; read-out: inhibition (10 μM)): -10.1%
inhibition at 10 µM (NDR2; [1]): 0%
inhibition at 10 µM (NDR2; read-out: inhibition (10 μM)): -8.7%
inhibition at 10 µM (FER; [1]): 50 to 75%
inhibition at 10 µM (FER; read-out: inhibition (10 μM)): 63.6%
inhibition at 10 µM (CSK; [1]): 0%
inhibition at 10 µM (CSK; read-out: inhibition (10 μM)): 0.1%
inhibition at 10 µM (PIK3CB; [1]): 0%
inhibition at 10 µM (PIK3CB; read-out: inhibition (10 μM)): 14.6%
inhibition at 10 µM (ZAK; [1]): 35 to 40%
inhibition at 10 µM (ZAK; read-out: inhibition (10 μM)): 36.2%
inhibition at 10 µM (GCK; [1]): > 90%
inhibition at 10 µM (GCK; read-out: inhibition (10 μM)): 92.5%
inhibition at 10 µM (MAP3K1; [1]): 35 to 40%
inhibition at 10 µM (MAP3K1; read-out: inhibition (10 μM)): 48.5%
